Tested on: S. tritici
Assay: S. tritici infection of wheat seedlings after spraying first leaves (induced resistance)
Format: in vivo, Septoria tritici
Procedure: Wheat seedlings at the 2 leaf stage were used in the study. Plants were grown singly in pots and were split into two batches. First leaves were sprayed with pyraclostrobin at the recommended rate (first leaves of controls were sprayed with distilled water) and the plants to be used for disease assessment were inoculated with S. tritici once leaves had dried. Both first and second leaves were inoculated by spraying with a spore suspension of 1×10^5 spores/ml of distilled water containing a drop of Tween 20. Immediately after inoculation, pots were placed in water-saturated trays and covered with clear polyethene bags for 48 h. Thereafter plants were grown at 18° C. with 12 h/12 h light/dark alternation. Infection intensity was assessed 18 days after inoculation by estimating the % leaf area covered by symptoms.

pyraclostrobin
reduced infection on first leaves (after 18 days, compared to non treated controls): 65%
reduced infection on second leaves (after 18 days, compared to non treated controls, only first leaves sprayed): 61%
Infection (% leaf area showing symptoms) First leaf (wheat seedlings, first leaves sprayed at the recommended rate, 18 days after inoculation, means ±SE of 10 replicates, pyraclostrobin-resistant isolate): 17 ± 2.3 % leaf area showing symptoms
reduces S. tritici infection of first and second leaves (wheat seedlings, isolate resistant to pyraclostrobin): > 60%
Infection (% leaf area showing symptoms) Second leaf (wheat seedlings, only first leaves sprayed at the recommended rate, 18 days after inoculation, means ±SE of 10 replicates, pyraclostrobin-resistant isolate): 16 ± 1.4 % leaf area showing symptoms
